{"source": "patent US20120219952A1", "about": "“CARBAPENEMASE AND ANTIBACTERIAL TREATMENT” (priority 2009, published 2012)", "molecules": {"B1": {"name": "DIM-1: Ambler class B carbapenemase (Dutch IMipenemase) from P. stutzeri 13, SEQ ID NO:1 (protein, listed as Pseudomonas stutzeri)", "chain": "MRTHFTALLLLFSLSSLANDEVPELRIEKVKENIFLHTSYSRVNGFGLVSSNGLVVIDKGNAFIVDTPWSDRDTETLVHWIRKNGYELLGSVSTHWHEDRTAGIKWLNDQSISTYATTSTNHLLKENKKEPAKYTLKGNESTLVDGLIEVFYPGGGHTIDNVVVWLPKSKILFGGCFVRSLDSEGLGYTGEAHIDQWSRSAQNALSRYSEAQIVIPGHGKIGDIALLKHTKSLAETASNKSIQPNANASAD"}}, "key": {"P. stutzeri 13 [1]": {"system": "P. stutzeri 13", "test": "Carbapenemase detection with Etest carbapenem-containing strips", "assay_type": "cell-based, Pseudomonas stutzeri", "conditions": "imipenem alone vs with EDTA", "experimental": "(§1) Susceptibility testing. Antibiotic-containing disks were used for routine antibiograms by the disk diffusion assay (Sanofi-Diagnostic Pasteur, Marnes-la-Coquette, France). The ESBL double-disk synergy test was performed with disks containing ceftazidime or cefepime and ticarcillin-clavulanic acid on Mueller-Hinton agar plates, and the results were interpreted as described previously (Poirel, Le Thomas et al., 2000). The carbapenemase detection was performed by using Etest carbapenem-containing strips (AB Biodisk, Solna, Sweden)."}, "carbapenemase DIM-1": {"target": "carbapenemase DIM-1 (Stutzerimonas stutzeri, UniProt D5JGF6)", "test": "Kinetic measurements with purified carbapenemase (hydrolysis of β-lactams)", "assay_type": "biochemical, P. stutzeri", "conditions": "purified DIM-1, 30° C., 100 mM sodium phosphate pH 7.0", "excerpt": "(§2) Carbapenemase purification and isoelectric focusing (IEF) analysis. […] Carbapenemase was purified by ion-exchange chromatography."}, "[2]": {"system": "P. stutzeri clinical isolate 13", "test": "Routine antibiogram by disk diffusion assay", "assay_type": "cell-based, Pseudomonas stutzeri", "conditions": "clinical isolate P. stutzeri 13 expressing DIM-1", "experimental": "Bacterial strains. P. stutzeri clinical isolate 13 was identified with the API-20 NE system (BioMérieux, Marcy l'Etoile, France), and confirmed by rRNA sequencing. Escherichia coli TOP10 (In Vitrogen, Carlsbad, Calif.)was the host for cloning experiments (Poirel et al., 2001)\nas §1"}, "P. stutzeri 13 [3]": {"system": "P. stutzeri 13", "test": "MICs by agar dilution technique", "assay_type": "cell-based, Pseudomonas stutzeri", "conditions": "for β-lactam susceptibility from MICs: agar dilution, 37° C., 18 h; for restoration of susceptibility to penicillins on addition of inhibitor: clavulanic acid 2 μg/ml, tazobactam 4 μg/ml", "experimental": "(§3) MICs were determined by an agar dilution technique with Mueller-Hinton agar (Sanofi-Diagnostic Pasteur) with an inoculum of 10^4 CFU/ml, as described previously (Poirel, Le Thomas et al., 2000). All plates were incubated at 37° C. for 18 h at ambient atmosphere. MICs of β-lactams were determined alone or in combination with a fixed concentration of clavulanic acid (2 μg/ml), tazobactam (4 μg/ml), and sulbactam (4 μg/ml). MIC results were interpreted according to the guidelines of the National Committee for Clinical Laboratory Standards (NCCLS) (CLSI)."}, "E. coli DH10B(pXD-1)": {"system": "E. coli DH10B(pXD-1)", "test": "MICs by agar dilution technique", "assay_type": "cell-based, Escherichia coli", "conditions": "for β-lactam susceptibility from MICs: agar dilution, 37° C., 18 h; for restoration of susceptibility to penicillins on addition of inhibitor: clavulanic acid 2 μg/ml, tazobactam 4 μg/ml", "experimental": "as §3"}, "[4]": {"system": "CC(C)(O/N=C(\\C(=O)N[C@@H]1C(=O)N2C(C(=O)[O-])=C(C[n+]3ccccc3)CS[C@H]12)c1csc(N)n1)C(=O)O", "test": "Kinetic measurements with purified carbapenemase (hydrolysis of β-lactams)", "assay_type": "biochemical, P. stutzeri", "conditions": "other: purified DIM-1, 30° C., 100 mM sodium phosphate pH 7.0", "excerpt": "as §2"}, "[5]": {"test": "Specific activity of purified carbapenemase (imipenem hydrolysis)", "assay_type": "biochemical", "conditions": "purified enzyme; 1 U = 1 μmol of imipenem hydrolyzed per min per mg of protein", "experimental": "The specific activity of the purified carbapenemase from E. coli DH10B(pXD-1) was obtained as described previously (Poirel et al., 1999). One unit of enzyme activity was defined as the activity which hydrolyzed 1 μmol of imipenem per min per mg of protein. The total protein content was measured with the DC Protein assay kit (Bio-Rad, Ivry-sur-Seine, France)."}}}
{"molecule": "C[C@@H](O)[C@H]1C(=O)N2C(C(=O)O)=C(SCCN=CN)C[C@H]12", "note": "[imipenem]", "values": [{"measurement": "MIC (carbapenem-containing E-test)", "setting": "P. stutzeri 13 [1]", "result": 64, "unit": "µg/mL"}]}
{"molecule": "CO/N=C(\\C(=O)N[C@@H]1C(=O)N2C(C(=O)O)=C(COC(C)=O)CS[C@H]12)c1csc(N)n1", "note": "[cefotaxime]", "values": [{"measurement": "hydrolysis by DIM-1 (relative hydrolysis rates, substrate profile)", "setting": "carbapenemase DIM-1", "result": "hydrolyzed at a similar level as benzylpenicillin"}]}
{"molecule": "C[C@H]1[C@H](NC(=O)/C(=N\\OC(C)(C)C(=O)O)c2csc(N)n2)C(=O)N1S(=O)(=O)O", "note": "[aztreonam]", "values": [{"measurement": "susceptibility of P. stutzeri 13", "setting": "[2]", "result": "fully susceptible"}, {"measurement": "β-lactam susceptibility from MICs", "setting": "P. stutzeri 13 [3]", "result": "spared"}, {"measurement": "β-lactam susceptibility from MICs", "setting": "E. coli DH10B(pXD-1)", "result": "spared"}, {"measurement": "hydrolysis by DIM-1 (relative hydrolysis rates, substrate profile)", "setting": "carbapenemase DIM-1", "result": "excluding"}]}
{"molecule": "C[C@@H](O)[C@H]1C(=O)N2C(C(=O)O)=C(S[C@@H]3CN[C@H](C(=O)N(C)C)C3)[C@H](C)[C@H]12", "note": "[meropenem]", "values": [{"measurement": "β-lactam susceptibility from MICs", "setting": "P. stutzeri 13 [3]", "result": "reduced susceptibility"}, {"measurement": "β-lactam susceptibility from MICs", "setting": "E. coli DH10B(pXD-1)", "result": "reduced susceptibility"}]}
{"molecule": "piperacillin-tazobactam", "values": [{"measurement": "susceptibility of P. stutzeri 13", "setting": "[2]", "result": "resistant"}]}
{"molecule": "CC(C)(O/N=C(\\C(=O)N[C@@H]1C(=O)N2C(C(=O)[O-])=C(C[n+]3ccccc3)CS[C@H]12)c1csc(N)n1)C(=O)O", "note": "[ceftazidime]", "values": [{"measurement": "susceptibility of P. stutzeri 13", "setting": "[2]", "result": "reduced susceptibility"}, {"measurement": "hydrolysis by DIM-1 (relative hydrolysis rates, substrate profile)", "setting": "carbapenemase DIM-1", "result": "well hydrolyzed"}]}
{"molecule": "NC[C@H]1O[C@H](O[C@H]2[C@H](O)[C@@H](O[C@H]3O[C@H](CO)[C@@H](O)[C@H](N)[C@H]3O)[C@H](N)C[C@@H]2N)[C@H](N)C[C@@H]1O", "note": "[tobramycin]", "values": [{"measurement": "susceptibility of P. stutzeri 13", "setting": "[2]", "result": "resistant"}]}
{"molecule": "CCN[C@@H]1C[C@H](N)[C@@H](O[C@H]2OC(CN)=CC[C@H]2N)[C@H](O)[C@H]1O[C@H]1OC[C@](C)(O)[C@H](NC)[C@H]1O", "note": "[netilmicin]", "values": [{"measurement": "susceptibility of P. stutzeri 13", "setting": "[2]", "result": "susceptible"}]}
{"molecule": "CCN1CCN(C(=O)N[C@@H](C(=O)N[C@@H]2C(=O)N3[C@@H]2SC(C)(C)[C@@H]3C(=O)O)c2ccccc2)C(=O)C1=O", "note": "[piperacillin]", "values": [{"measurement": "susceptibility of P. stutzeri 13", "setting": "[2]", "result": "resistant"}]}
{"molecule": "gentamicin", "values": [{"measurement": "susceptibility of P. stutzeri 13", "setting": "[2]", "result": "resistant"}]}
{"molecule": "C[C@]1(Cn2ccnn2)[C@H](C(=O)O)N2C(=O)C[C@H]2S1(=O)=O", "note": "[tazobactam]", "values": [{"measurement": "restoration of susceptibility to penicillins on addition of inhibitor", "setting": "P. stutzeri 13 [3]", "result": "did not restore any susceptibility to penicillins"}, {"measurement": "restoration of susceptibility to penicillins on addition of inhibitor", "setting": "E. coli DH10B(pXD-1)", "result": "did not restore any susceptibility to penicillins"}]}
{"molecule": "CO[C@@]1(NC(=O)Cc2cccs2)C(=O)N2C(C(=O)O)=C(COC(N)=O)CS[C@@H]21", "note": "[cefoxitin]", "values": [{"measurement": "hydrolysis by DIM-1 (relative hydrolysis rates, substrate profile)", "setting": "carbapenemase DIM-1", "result": "good substrate"}]}
{"molecule": "carbapenemase DIM-1 (Stutzerimonas stutzeri)", "values": [{"measurement": "Km", "setting": "[4]", "result": 50, "unit": "µM"}]}
{"molecule": "colistin", "values": [{"measurement": "susceptibility of P. stutzeri 13", "setting": "[2]", "result": "susceptible"}]}
{"molecule": "CC1(C)S[C@@H]2[C@H](NC(=O)[C@H](C(=O)O)c3ccsc3)C(=O)N2[C@H]1C(=O)O", "note": "[ticarcillin]", "values": [{"measurement": "susceptibility of P. stutzeri 13", "setting": "[2]", "result": "resistant"}]}
{"molecule": "O=C(O)[C@H]1/C(=C/CO)O[C@@H]2CC(=O)N21", "note": "[clavulanic acid]", "values": [{"measurement": "restoration of susceptibility to penicillins on addition of inhibitor", "setting": "P. stutzeri 13 [3]", "result": "did not restore any susceptibility to penicillins"}, {"measurement": "restoration of susceptibility to penicillins on addition of inhibitor", "setting": "E. coli DH10B(pXD-1)", "result": "did not restore any susceptibility to penicillins"}]}
{"molecule": "CO/N=C(\\C(=O)N[C@@H]1C(=O)N2C(C(=O)[O-])=C(C[N+]3(C)CCCC3)CS[C@H]12)c1csc(N)n1", "note": "[cefepime]", "values": [{"measurement": "susceptibility of P. stutzeri 13", "setting": "[2]", "result": "reduced susceptibility"}]}
{"molecule": "NCC[C@H](O)C(=O)N[C@@H]1C[C@H](N)[C@@H](O[C@H]2O[C@H](CN)[C@@H](O)[C@H](O)[C@H]2O)[C@H](O)[C@H]1O[C@H]1O[C@H](CO)[C@@H](O)[C@H](N)[C@H]1O", "note": "[amikacin]", "values": [{"measurement": "susceptibility of P. stutzeri 13", "setting": "[2]", "result": "susceptible"}]}
{"molecule": "O=C(N[C@H](CO)[C@H](O)c1ccc([N+](=O)[O-])cc1)C(Cl)Cl", "note": "[chloramphenicol]", "values": [{"measurement": "susceptibility of P. stutzeri 13", "setting": "[2]", "result": "resistant"}]}
{"molecule": "CO/N=C(\\C(=O)N[C@@H]1C(=O)N2C(C(=O)[O-])=C(C[n+]3cccc4c3CCC4)CS[C@H]12)c1csc(N)n1", "note": "[cefpirome]", "values": [{"measurement": "susceptibility of P. stutzeri 13", "setting": "[2]", "result": "reduced susceptibility"}]}
{"molecule": "B1", "values": [{"measurement": "specific activity", "setting": "[5]", "result": "21 U.mg of protein^−1"}]}
